Laboratory results taken from US20230416240A1, “KAT6 TARGETING COMPOUNDS” (Prelude Therapeutics Incorporated, priority 2022, published 2023).

What was measured:
HiBit tagged KAT6A = molecular target: T1, HiBit tagged KAT6A (Homo sapiens, UniProt Q92794); assay: HiBit KAT6A Degradation Assessment; assay type: cell-based; conditions: HeLa cells with HiBit tagged KAT6A, 18 h of treatment, 9-point serial dilution
T1 construct: host or cells: HeLa
Procedure: The degradation activity of compounds was evaluated by measuring levels of KAT6A protein using the HiBiT system. These studies were conducted in HeLa cells with a HiBit tagged KAT6A. Cells were maintained in a 37° C. incubator at 5% CO2 in EMEM (ATCC, 30-2003) supplemented with 10% v/v FBS (Gibco, 26140-079) and 1% penicillin streptomycin. Cells were seeded in 384-well plates at a density of 2,000 cells/well. Compounds dissolved in DMSO were added in 9-point serial dilution. After 18 h of treatment, KAT6A levels were measured using the Nano-Glo® HiBiT Lytic Detection System (Promega catalog number N3030) per manufacturer's instructions. Luminescence signal was measured with a multimode plate reader (Envision 2105, Perkin Elmer). Luminescence values were normalized to background and DMSO controls to quantify KAT6A for each condition. Results were analyzed, and DC50 and Dmax values obtained using a four-parameter logistic curve fit.

KAT6A = molecular target: T2, KAT6A (Homo sapiens, UniProt Q92794); assay: Western Blot KAT6A Degradation Assessment; assay type: cell-based; conditions: 0.1 μM compound, 24 hours of treatment, HCC1954 cell line, KAT6A normalized to GAPDH and DMSO
T2 construct: These studies were conducted in the HCC1954 cell line which harbors a KAT6A copy number amplification; endogenous in cells; host or cells: HCC1954
Procedure: The activity of compounds was evaluated by measuring KAT6A protein levels as a readout of KAT6A degradation ability using western blot. These studies were conducted in the HCC1954 cell line which harbors a KAT6A copy number amplification. Cells were maintained in a 37° C. incubator at 5% CO2 in the following media: RPMI 1640, ATCC© Modification (Gibco, A10491-01) supplemented with 10% v/v FBS (Gibco, 26140-079) and 1% penicillin streptomycin (Gibco, 15140-122). Cells were seeded in 6-well plates at a density of 300,000 cells/well and allowed to attach overnight in an incubator. Compounds dissolved in DMSO were prepared at 1000× the desired final concentration such that the final percentage of DMSO was 0.1%. After 24 hours of treatment, cells were washed with phosphate buffered saline (PBS) (Corning, 21-040-CV), detached with trypsin-EDTA (Gibco, #25200-056), and pelleted in complete RPMI media in a microcentrifuge for 5 min at 1500 rpm. Protein was extracted from cell pellets by re-suspending in 15 uL PBS before adding 45 uL of lysis buffer composed of 4% SDS, 1× protease and phosphatase inhibitors, and 1 mM PMSF (Cell Signaling Technology, #8553S). Lysates were transferred to homogenizer columns (Omega Biotek, #HCR003) and centrifuged for 1.5 min at 12,000 rpm.
Homogenized lysates were quantified by BCA assay (ThermoScientific, Pierce BCA Protein Assay, #23223, #23224) as per manufacturer instructions. Samples were then diluted in 4× Laemmli buffer (Biorad, #1610747) to a 1× solution which was boiled at 95° C. for 5 minutes. To assess KAT6A protein expression, samples were run on 26 well gels (Biorad, 4-15% Criterion TGX Precast gels, #5671085) at 120V for approximately 1 hour. Protein was transferred to low-fluorescence PVDF membranes (Millipore Sigma, #IPFL00010) using Trans-Blot Turbo Transfer System (Biorad). Membranes were then probed with KAT6A (Cell Signaling Technology, #78462) and GAPDH (Cell Signaling Technology, #5174S) primary, and fluorescently tagged secondary antibodies (LI-COR, IRDye 800CW Goat anti-rabbit #926-32211; IRDye 680RD Goat anti-mouse #926-68070) at manufacturer recommended conditions using the iBind Flex western device (Thermofisher, SLF2000). Membranes were washed briefly in water and scanned with a LI-COR Odyssey CLx. Quantification of bands was assessed using Image Studio Ver 5.2. to normalize KAT6A expression to GAPDH loading controls before representing KAT6A expression as a percentage of that observed in DMSO.

T2 sequence (Q92794 whole entry): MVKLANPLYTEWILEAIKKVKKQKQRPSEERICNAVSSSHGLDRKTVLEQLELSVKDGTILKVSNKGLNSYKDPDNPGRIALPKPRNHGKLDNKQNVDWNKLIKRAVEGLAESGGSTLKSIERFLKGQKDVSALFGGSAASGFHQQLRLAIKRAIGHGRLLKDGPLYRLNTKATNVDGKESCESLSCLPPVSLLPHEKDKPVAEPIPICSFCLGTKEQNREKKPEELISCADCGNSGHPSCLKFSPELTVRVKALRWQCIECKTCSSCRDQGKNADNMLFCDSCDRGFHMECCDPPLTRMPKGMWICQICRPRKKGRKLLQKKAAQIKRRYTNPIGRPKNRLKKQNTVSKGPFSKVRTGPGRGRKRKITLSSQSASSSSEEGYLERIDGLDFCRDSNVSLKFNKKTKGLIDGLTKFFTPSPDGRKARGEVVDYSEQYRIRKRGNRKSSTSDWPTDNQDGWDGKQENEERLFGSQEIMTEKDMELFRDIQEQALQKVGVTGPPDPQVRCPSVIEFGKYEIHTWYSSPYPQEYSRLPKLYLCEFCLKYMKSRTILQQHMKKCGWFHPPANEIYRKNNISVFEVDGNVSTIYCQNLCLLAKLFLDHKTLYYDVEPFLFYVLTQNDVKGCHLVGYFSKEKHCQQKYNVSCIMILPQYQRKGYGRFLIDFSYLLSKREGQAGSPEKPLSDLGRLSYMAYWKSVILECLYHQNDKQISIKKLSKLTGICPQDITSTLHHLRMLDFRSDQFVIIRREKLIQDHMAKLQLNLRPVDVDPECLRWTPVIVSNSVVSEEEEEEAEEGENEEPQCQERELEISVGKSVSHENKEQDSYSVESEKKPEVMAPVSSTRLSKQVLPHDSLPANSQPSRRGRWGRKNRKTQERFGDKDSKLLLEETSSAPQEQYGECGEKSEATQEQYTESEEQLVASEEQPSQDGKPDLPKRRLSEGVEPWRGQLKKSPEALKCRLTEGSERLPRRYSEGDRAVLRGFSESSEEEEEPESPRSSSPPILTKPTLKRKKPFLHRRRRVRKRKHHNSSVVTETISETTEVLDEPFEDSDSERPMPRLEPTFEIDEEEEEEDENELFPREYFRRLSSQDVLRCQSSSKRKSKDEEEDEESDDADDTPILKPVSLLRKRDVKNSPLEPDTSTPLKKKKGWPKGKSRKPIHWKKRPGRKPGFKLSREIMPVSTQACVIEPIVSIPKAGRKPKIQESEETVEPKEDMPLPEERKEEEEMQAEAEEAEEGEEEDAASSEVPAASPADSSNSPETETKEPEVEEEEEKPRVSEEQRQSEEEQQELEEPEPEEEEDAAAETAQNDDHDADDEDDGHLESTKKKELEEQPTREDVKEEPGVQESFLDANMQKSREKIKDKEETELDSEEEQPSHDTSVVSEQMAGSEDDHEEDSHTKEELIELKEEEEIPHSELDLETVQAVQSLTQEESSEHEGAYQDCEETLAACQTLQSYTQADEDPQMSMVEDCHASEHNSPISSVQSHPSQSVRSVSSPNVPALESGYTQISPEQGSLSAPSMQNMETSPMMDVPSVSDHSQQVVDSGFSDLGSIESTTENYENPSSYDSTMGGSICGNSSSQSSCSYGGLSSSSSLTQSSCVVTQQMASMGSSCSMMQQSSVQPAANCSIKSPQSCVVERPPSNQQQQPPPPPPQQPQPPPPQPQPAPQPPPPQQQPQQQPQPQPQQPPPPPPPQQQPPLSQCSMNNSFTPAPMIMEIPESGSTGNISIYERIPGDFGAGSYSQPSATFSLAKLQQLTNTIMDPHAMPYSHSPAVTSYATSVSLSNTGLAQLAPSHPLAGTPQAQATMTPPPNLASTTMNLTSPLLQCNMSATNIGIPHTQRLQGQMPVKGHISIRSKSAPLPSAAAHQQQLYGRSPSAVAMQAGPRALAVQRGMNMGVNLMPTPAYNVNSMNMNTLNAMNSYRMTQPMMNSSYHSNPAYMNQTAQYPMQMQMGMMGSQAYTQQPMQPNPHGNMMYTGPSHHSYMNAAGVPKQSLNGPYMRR
T1 sequence (Q92794 whole entry): as above

Row | DC50 (HiBit tagged KAT6A) | Dmax (HiBit tagged KAT6A) | inhibition at 0.1 µM (KAT6A) | SMILES
1 | 10 to 100 nM | 50 to 75% | 50 to 75% | COc1cc(Cn2cccn2)cc2onc(NS(=O)(=O)c3cccc(N4CCC(CN5CCN(c6ccc7c(c6)c6cccnc6n7C6CCC(=O)NC6=O)CC5)C4)c3)c12 (stereo not shown) [Example 6, 3-[3-[[4-[9-(2,6-Dioxopiperidin-3-yl)pyrido[2,3-b]indol-6-yl]piperazin-1-yl]methyl]pyrrolidin-1-yl]-N-[4-methoxy-6-(pyrazol-1-ylmethyl)-1,2-benzoxazol-3-yl]benzenesulfonamide]
2 | 10 to 100 nM | 50 to 75% | 0 to 50% | COc1cc(Cn2cccn2)cc2onc(NS(=O)(=O)c3cccc(N4CCN(CCC5CCN(c6ccc7c(c6)C(=O)N(C6CCC(=O)NC6=O)C7=O)CC5)CC4)c3)c12 (stereo not shown) [Example 3, N-(6-((1H-Pyrazol-1-yl)methyl)-4-methoxybenzo[d]isoxazol-3-yl)-3-(4-(2-(1-(2-(2,6-dioxopiperidin-3-yl)-1,3-dioxoisoindolin-5-yl)piperidin-4-yl)ethyl)piperazin-1-yl)benzenesulfonamide]
3 | < 10 nM | > 75% | > 75% | COc1cc(Cn2cccn2)cc2onc(NS(=O)(=O)c3cccc(N4CCN(CC5CCN(CC6CCN(c7ccc8c(c7)C(=O)N(C7CCC(=O)NC7=O)C8=O)CC6)CC5)CC4)c3)c12 (stereo not shown) [Example 7, 3-[4-[[1-[[1-[2-(2,6-Dioxopiperidin-3-yl)-1,3-dioxoisoindol-5-yl]piperidin-4-yl]methyl]piperidin-4-yl]methyl]piperazin-1-yl]-N-[4-methoxy-6-(pyrazol-1-ylmethyl)-1,2-benzoxazol-3-yl]benzenesulfonamide]
4 | < 10 nM | > 75% | > 75% | COc1cc(Cn2cccn2)cc2onc(NS(=O)(=O)c3cccc(N4CC5(CCN(CC6CCN(c7ccc8c(c7)C(=O)N(C7CCC(=O)NC7=O)C8=O)C6)CC5)C4)c3)c12 (stereo not shown) [Example 5, 3-[7-[[1-[2-(2,6-Dioxopiperidin-3-yl)-1,3-dioxoisoindol-5-yl]pyrrolidin-3-yl]methyl]-2,7-diazaspiro[3.5]nonan-2-yl]-N-[4-methoxy-6-(pyrazol-1-ylmethyl)-1,2-benzoxazol-3-yl]benzenesulfonamide]
5 | 10 to 100 nM | > 75% | 50 to 75% | COc1cc(Cn2cccn2)cc2onc(NS(=O)(=O)c3cccc(N4CCN(C5CC6(CCN(c7ccc8c(c7)C(=O)N(C7CCC(=O)NC7=O)C8=O)CC6)C5)CC4)c3)c12 (stereo not shown) [Example 4, 3-[4-[7-[2-(2,6-Dioxopiperidin-3-yl)-1,3-dioxoisoindol-5-yl]-7-azaspiro[3.5]nonan-2-yl]piperazin-1-yl]-N-[4-methoxy-6-(pyrazol-1-ylmethyl)-1,2-benzoxazol-3-yl]benzenesulfonamide]

Second part, the molecule before the results:

Row | SMILES | DC50 (HiBit tagged KAT6A) | Dmax (HiBit tagged KAT6A) | inhibition at 0.1 µM (KAT6A)
6 | COc1cc(Cn2cccn2)cc2onc(NS(=O)(=O)c3cccc(N4CCN(C5CC6(CCN(c7ccc8c(c7)C(=O)N(C7CCC(=O)NC7=O)C8=O)C6)C5)CC4)c3)c12 (stereo not shown) [Example 8, 3-[4-[6-[2-(2,6-Dioxopiperidin-3-yl)-1,3-dioxoisoindol-5-yl]-6-azaspiro[3.4]octan-2-yl]piperazin-1-yl]-N-[4-methoxy-6-(pyrazol-1-ylmethyl)-1,2-benzoxazol-3-yl]benzenesulfonamide] | 10 to 100 nM | 50 to 75% | > 75%
7 | COc1cc(Cn2cccn2)cc2onc(NS(=O)(=O)c3cccc(N4CCN(CC5CCN(c6ccc7c(c6)C(=O)N(C6CCC(=O)NC6=O)C7=O)C5)CC4)c3)c12 (stereo not shown) [Example 1, N-(6-((1H-Pyrazol-1-yl)methyl)-4-methoxybenzo[d]isoxazol-3-yl)-3-(4-((1-(2-(2,6-dioxopiperidin-3-yl)-1,3-dioxoisoindolin-5-yl)pyrrolidin-3-yl)methyl)piperazin-1-yl)benzenesulfonamide] | 100 to 1000 nM | 50 to 75% | 50 to 75%
8 | COc1cc(Cn2cccn2)cc2onc(NS(=O)(=O)c3cccc(N4CC5(CN(CC6CCN(c7ccc8c(c7)C(=O)N(C7CCC(=O)NC7=O)C8=O)C6)C5)C4)c3)c12 (stereo not shown) [Example 11, 3-[6-[[1-[2-(2,6-dioxopiperidin-3-yl)-1,3-dioxoisoindol-5-yl]pyrrolidin-3-yl]methyl]-2,6-diazaspiro[3.3]heptan-2-yl]-N-[4-methoxy-6-(pyrazol-1-ylmethyl)-1,2-benzoxazol-3-yl]benzenesulfonamide] | 10 to 100 nM | 50 to 75% | 50 to 75%
9 | COc1cc(Cn2cccn2)cc2onc(NS(=O)(=O)c3cccc(N4CCN(CCCC5CCN(c6ccc7c(c6)C(=O)N(C6CCC(=O)NC6=O)C7=O)CC5)CC4)c3)c12 (stereo not shown) [Example 2, N-(6-((1H-Pyrazol-1-yl)methyl)-4-methoxybenzo[d]isoxazol-3-yl)-3-(4-(3-(1-(2-(2,6-dioxopiperidin-3-yl)-1,3-dioxoisoindolin-5-yl)piperidin-4-yl)propyl)piperazin-1-yl)benzenesulfonamide] |  | 25 to 50% | 50 to 75%
10 | COc1cc(Cn2cccn2)cc2onc(NS(=O)(=O)c3cccc(N4CCN(CCC5CCN(c6ccc7c(c6)C(=O)N(C6CCC(=O)NC6=O)C7=O)C5)CC4)c3)c12 (stereo not shown) [Example 9, 3-[4-[2-[1-[2-(2,6-Dioxopiperidin-3-yl)-1,3-dioxoisoindol-5-yl]pyrrolidin-3-yl]ethyl]piperazin-1-yl]-N-[4-methoxy-6-(pyrazol-1-ylmethyl)-1,2-benzoxazol-3-yl]benzenesulfonamide] | 10 to 100 nM | 50 to 75% | 0 to 50%
11 | COc1cc(Cn2cccn2)cc2onc(NS(=O)(=O)c3cccc(N4CCN(CC5CCN(c6ccc7c(c6)CN(C6CCC(=O)NC6=O)C7=O)C5)CC4)c3)c12 (stereo not shown) [Example 10, 3-[4-[[1-[2-(2,6-Dioxopiperidin-3-yl)-1-oxo-3H-isoindol-5-yl]pyrrolidin-3-yl]methyl]piperazin-1-yl]-N-[4-methoxy-6-(pyrazol-1-ylmethyl)-1,2-benzoxazol-3-yl]benzenesulfonamide] |  | 25 to 50% | 50 to 75%
